# Source: BindingDB's records for doi:10.1021/jm000145g (University of Oxford, 2001)
# Counter-ions that a name gives are not always drawn.
# Biological target: Prostate-specific antigen (Homo sapiens) (UniProt P07288)
# Experiment: Inhibition of Prostate specific antigen PSA (Serine Protease)
# Chain of Prostate-specific antigen (Homo sapiens) (P07288 whole entry, looked up): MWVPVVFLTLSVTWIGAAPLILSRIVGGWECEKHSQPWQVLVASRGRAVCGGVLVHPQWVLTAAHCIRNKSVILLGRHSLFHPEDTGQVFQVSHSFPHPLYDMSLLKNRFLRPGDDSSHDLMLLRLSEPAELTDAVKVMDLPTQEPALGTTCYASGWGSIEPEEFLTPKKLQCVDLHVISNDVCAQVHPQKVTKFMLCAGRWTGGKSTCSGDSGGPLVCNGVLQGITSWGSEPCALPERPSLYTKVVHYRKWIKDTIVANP
row,SMILES,IC50
1,O=C(OCc1ccccc1)[C@@H]1[C@H](Cc2ccc(O)cc2)C(=O)N1C(=O)c1ccccc1 [1-Benzoyl-3-(4-hydroxy-benzyl)-4-oxo-azetidine-2-carboxylic acid benzyl ester],9.14 µM
2,O=C(O)c1ccc(COC(=O)[C@@H]2[C@H](Cc3ccccc3)C(=O)N2C(=O)c2ccccc2)cc1 [1-Benzoyl-3-benzyl-4-oxo-azetidine-2-carboxylic acid 4-carboxy-benzyl ester],24.3 µM
3,NCc1ccc(COC(=O)[C@@H]2[C@H](Cc3ccccc3)C(=O)N2C(=O)Cc2cccc(C(=O)OCc3ccccc3)c2)cc1 [3-Benzyl-1-[2-(3-benzyloxycarbonyl-phenyl)-acetyl]-4-oxo-azetidine-2-carboxylic acid 4-aminomethyl-benzyl ester; TFA],1.34 µM
4,O=C(O)c1ccc(COC(=O)[C@@H]2[C@H](Cc3ccccc3)C(=O)N2C(=O)Cc2cccc(C(=O)O)c2)cc1 [3-Benzyl-1-[2-(3-carboxy-phenyl)-acetyl]-4-oxo-azetidine-2-carboxylic acid 4-carboxy-benzyl ester],> 30 µM
5,Cc1ccc(S(=O)(=O)N2C(=O)[C@@H](Cc3ccccc3)[C@H]2C(=O)OCc2ccccc2)cc1 [3-Benzyl-4-oxo-1-(toluene-4-sulfonyl)-azetidine-2-carboxylic acid benzyl ester],> 30 µM
6,O=C(OCc1ccccc1)c1cccc(CC(=O)N2C(=O)[C@@H](Cc3ccccc3)[C@H]2COC(=O)c2ccccc2)c1 [3-[2-(2-Benzoyloxymethyl-3-benzyl-4-oxo-azetidin-1-yl)-2-oxo-ethyl]-benzoic acid benzyl ester],> 100 µM
7,O=C(OC[C@@H]1[C@H](Cc2ccccc2)C(=O)N1S(=O)(=O)c1ccccc1)c1ccccc1 [Benzoic acid 1-benzenesulfonyl-3-benzyl-4-oxo-azetidin-2-ylmethyl ester],3.08 µM
8,O=C(OC[C@@H]1[C@H](Cc2ccccc2)C(=O)N1C(=O)c1ccccc1)c1ccccc1 [Benzoic acid 1-benzoyl-3-benzyl-4-oxo-azetidin-2-ylmethyl ester],1.59 µM
9,O=C(OC[C@@H]1[C@H](Cc2ccccc2)C(=O)N1S(=O)(=O)c1ccc([N+](=O)[O-])cc1)c1ccccc1 [Benzoic acid 3-benzyl-1-(4-nitro-benzenesulfonyl)-4-oxo-azetidin-2-ylmethyl ester],11.5 µM
10,CCS(=O)(=O)N1C(=O)[C@@H](Cc2ccccc2)[C@H]1COC(=O)c1ccccc1 [Benzoic acid 3-benzyl-1-ethanesulfonyl-4-oxo-azetidin-2-ylmethyl ester],2.19 µM
11,Cc1ccc(S(=O)(=O)N2C(=O)[C@@H](Cc3ccccc3)[C@H]2COC(=O)c2ccccc2)cc1 [Benzoic acid 3-benzyl-4-oxo-1-(toluene-4-sulfonyl)-azetidin-2-ylmethyl ester],4.79 µM
12,O=C(O)c1ccc(C(=O)OC[C@@H]2[C@H](Cc3ccccc3)C(=O)N2C(=O)c2ccccc2)cc1 [Terephthalic acid mono-(1-benzoyl-3-benzyl-4-oxo-azetidin-2-ylmethyl) ester],> 100 µM
